Converted amounts (≈) assume the structure as drawn. Where two headings read alike, the source gives them in different places. *1 amine or outer side, *2 acyl side, *3 side chain or, on linkers, in order; H or OH if unused. Where a SMILES comes first, the peptide text is derived from it. Bridges are numbered along the chain shown (N, C = ends). [ ]: non-standard residue; d: D form. The star is where a group is joined. NMeT = CN[CH](C(=O)O)[CH](C)O; X1 = CCCCCCCCCCCC(O)CC(=O)*; X2 = CC=C(N[*:1])C(=O)[*:2]; X3 = OCC1OC(*)C(O)C(O)C1O
What was measured:
Aeromonas sp. W-10 = assay: Resistance of Aeromonas sp. W-10 to antibacterial agents; assay type: cell-based; conditions: in words
Experimental: The growth and physiological characteristics of Aeromonas sp. All observations were made after seven (7) days of incubation at 28° C. Color designations are assigned according to the classification in the Color Harmony Manual (1958), Container Corporation of America. The designates G, S, C and R used herein stand for growth, surface, color and reaction, respectively.

Candida albicans [1] = assay: In vivo activity in mice infected intravenously with Candida albicans; set-up: species or system male CFl mice; Candida albicans; conditions: 48 hours after infection, read-out: PD50
Experimental: PD50 values were determined 48 hours after infection and are as follows: […]

Candida albicans [2] = assay: In vitro MIC against strains of Candida albicans in Sabouraud dextrose broth; assay type: cell-based
Experimental: Antibiotic 20562 was tested in vitro in Sabourraud dextrose broth against strains of Candida albicans, the Minimum Inhibitory Concentration (MIC) being set forth in Table IV below: […]

[3] = Toxicity (LD50), oral or subcutaneous administration; conditions: in vivo
[4] = system: Candida albicans (Wisconsin strain); assay: Topical in vivo activity against Candida albicans intravaginal infection in hamsters; set-up: species or system female hamsters; Candida albicans; conditions: three day treatment
Experimental: Using a culture of Candida albicans (Wisconsin strain), in Sabourrauds dextrose broth, infect intravaginally, five groups of six female hamsters. Forty-eight and seventy-two hours after infection, make smears of the infected animals and culture the smears. […] (96 hours after infection), make additional smears, culture and commence treatment. One group of six animals (controls) receives no treatment and, therefore, remains infected throughout the test. The remaining four groups of animals are treated with Antibiotic 20562, as 1%, 5%, 10% and 15% suspensions, respectively, the vehicle for suspension being administered on a cotton swab. At the end of the three day treatment the 1%, 5% and 10% groups are 60% cured, the 15% group is completely (100%) cured.

[5] = system: Saccharomyces cerevisiae ATCC 9763; assay: Agar diffusion assay against Antibiotic 20562 standard; assay type: cell-based
Experimental: The broths are assayed against a standard solution of Antibiotic 20562 having an assigned potency of 1000 mcg/mg. The standard solution is diluted with 10% potassium phosphate buffer (pH 6.0) to make solutions having antibiotic concentrations of 3.2, 4.0, 5.0, 6.25 and 7.8 mcg/ml. The assay is performed substantially as set forth in the Federal Register, Title 21, Chapter 436.105.

[6] = system: Trichophyton mentagrophytes; assay: In vivo activity against Trichophyton mentagrophytes infection in guinea pigs; conditions: 1% in polyethylene glycol 400, topical, twice daily for ten days
Experimental: The skin of fifteen guinea pigs is abraided and infected with a standard culture of Trichophyton mentagrophytes. The infected animals are then separated into three groups containing five animals each. Suspensions containing 1% of the respective antibiotics in polyethylene glycol 400 are prepared. Two of the three groups are treated topically, twice daily for ten days commencing three days after infection. The third group (controls) remained untreated throughout the test. All of the animals are tested for infection by culture and observed for skin lesions for a total of 21 days.

[7] = sc, single subcutaneous dose one hour after infection
[8] = single oral dose one hour after infection
[9] = Example 2 step B, after chromatography
[10] = Example 3 steps C and D, after chromatography
[11] = isolated antibiotics, crystalline from methanol

CC(C)c1nc2nc(N)nc(N)c2nc1C(C)C [0/129, 2,4-diamino-6,7-diisopropylpteridine]
sensitivity of Aeromonas sp. W-10 to the vibriostatic compound (Aeromonas sp. W-10): insensitive

CC=C(NC(=O)CC(O)CCCCCCCCCCC)C(=O)NC1C(=O)NC(C(C)O)C(=O)NC(Cc2ccc(O)cc2)C(=O)NC(=CC)C(=O)NC(CCC(N)=O)C(=O)NCC(=O)N(C)C(C(C)OC2OC(CO)C(O)C(O)C2O)C(=O)NC(Cc2cnc[nH]2)C(=O)OC1C (centres unmarked) [Antibiotic 20562] (X1-[X2]TTY[X2]QG[NMeT](X3)H; ester 2-C; configuration not given here)
ED50 (Candida albicans [1]; [7]): 4 mg/kg | ED50 (Candida albicans [1]; [8]): 25 mg/kg | MIC (Candida albicans [2]; Candida albicans, strain Burke, read-out: MIC): 0.075 µg/mL (≈ 0.0552 µM) | MIC (Candida albicans [2]; strain 29): 0.075 µg/mL (≈ 0.0552 µM) | MIC (Candida albicans [2]; strain Bevan): 0.075 µg/mL (≈ 0.0552 µM) | MIC (Candida albicans [2]; strain Collins): 0.075 µg/mL (≈ 0.0552 µM) | MIC (Candida albicans [2]; strain Fix): 0.075 µg/mL (≈ 0.0552 µM) | MIC (Candida albicans [2]; strain Lush): 0.075 µg/mL (≈ 0.0552 µM) | MIC (Candida albicans [2]; strain Merkel): 0.075 µg/mL (≈ 0.0552 µM) | MIC (Candida albicans [2]; strain Newcomb): 0.075 µg/mL (≈ 0.0552 µM) | MIC (Candida albicans [2]; strain No. 1): 0.075 µg/mL (≈ 0.0552 µM) | MIC (Candida albicans [2]; strain Raub): 0.075 µg/mL (≈ 0.0552 µM) | MIC (Candida albicans [2]; strain Sperk): 0.075 µg/mL (≈ 0.0552 µM) | MIC (Candida albicans [2]; strain Wisconsin): 0.075 µg/mL (≈ 0.0552 µM) | LD50 ([3]; po): 800 mg/kg | LD50 ([3]; sc): 600 mg/kg | cured ([4]; 1% suspension): 60% | cured ([4]; 5% suspension): 60% | cured ([4]; 10% suspension): 60% | cured ([4]; 15% suspension): 100% | assay (potency) [5, 9]: 800 µg/mg | assay (potency) [5, 10]: 1000 µg/mg | assay (potency) [5, 11]: about 1000 mcg/mg | Days to become negative, Culture [6]: 5.8 days | Days to become negative, Lesion [6]: 9.0 days

CC=C(NC(=O)CC(O)CCCCCCCCCCC)C(=O)NC1C(=O)NC(C(C)O)C(=O)NC(Cc2ccc(O)cc2)C(=O)NC(=CC)C(=O)NC(CCC(N)=O)C(=O)NCC(=O)N(C)C(C(C)O)C(=O)NC(Cc2cnc[nH]2)C(=O)OC1C (centres unmarked) [Antibiotic 20561] (X1-[X2]TTY[X2]QG[NMeT]H; ester 2-C; configuration not given here)
ED50 (Candida albicans [1]; [7]): 4 mg/kg | ED50 (Candida albicans [1]; [8]): 25 mg/kg | LD50 ([3]; po): 1000 mg/kg | LD50 ([3]; sc): > 1000 mg/kg | assay (potency) [5, 9]: 800 µg/mg | assay (potency) [5, 10]: 800 µg/mg | assay (potency) [5, 11]: about 800 mcg/mg | Days to become negative, Culture [6]: 4.8 days | Days to become negative, Lesion [6]: 6.3 days

— patent US4137224A (Schering Corporation, priority 1977, dated 1979)
